Measurements as given in patent publication US20170152245A1 (National Taiwan University, priority 2015, published 2017).
Each block holds one molecule with its values, some of them ahead of it.

Columns and labels:
[1] = tested on: human platelet suspension; experiment: ADP-induced platelet aggregation in human platelet suspension; type: cell-based; details: human platelet suspension; preliminary; compound concentration not given
Description: (§1) Human platelet suspension (PS) was prepared according to the method described previously. Briefly, blood sample, freshly obtained from healthy volunteers who had taken no medications during the preceding 2 weeks, was treated with acid citrate/dextrose (ACD) in a volume ratio of 9:1. After centrifugation at 120 g, 25° C. for 9 min, platelet-rich plasma was transferred into another plastic tube and incubated with heparin (6.4 U/ml) as well as prostaglandin E1 (1 μM). Platelets were spun down by centrifugation at 500 g, 25° C. for 8 min and subsequently washed two times with Tyrode solution (NaH2PO4 0.4 mM; NaCl 136.9 mM; KCl […]; NaHCO3 11.9 mM; CaCl2 2 mM; MgCl2 2.1 mM; glucose 11.1 mM; BSA 3.5 mg/ml; pH 7.35-7.4). The washed platelets were finally suspended in Tyrode's solution and the platelet count was adjusted to 3.75×10^8 platelets/ml. For platelet-rich plasma (PRP) preparation, whole blood was anticoagulated with 1/10 vol of sodium citrate (3.8%, w/v) and centrifuged at 150 g, 25° C. for 9 min.
(§2) Platelet aggregation was measured turbidimetrically with a Lumi-aggregometer (Payton Scientific) at 37° C. under stirring condition (900 rpm). Platelet suspensions were prewarmed to 37° C. for 2 min in a silicone-treated glass cuvette. Nstpbp5185 was added 3 min before the addition of platelet-aggregation inducers. The extent of platelet aggregation was determined by recording the increase of light transmission relative to that of control (maximal aggregation, as 100%) for 6 min after the addition of inducer. The final volume and platelet count for measuring platelet aggregation were 500 μl and 3×10^8/ml, respectively.

[2] = tested on: human platelet suspension; experiment: Collagen-induced platelet aggregation in human platelet suspension; type: cell-based; details: human platelet suspension; collagen 10 μg/ml; preliminary; compound concentration not given
Description: as §1, §2

[3] = tested on: human platelet suspension; experiment: U46619-induced platelet aggregation in human platelet suspension; type: cell-based; details: for IC50: Homo sapiens, Platelet, U46619-induced aggregation, platelet suspension, read-out: P.S(U46619) IC50
Description: as §1, §2

mice carotid artery = experiment: FeCl3-induced thrombus formation in mice carotid artery; type: in vivo
Description: FIG. 14 The antithrombotic activity of nstpbp5185 in FeCl3-induced thrombi formation in mice carotid artery. (A) Mice were intravenously administered with Heparin (10 or 100 U kg^−1), Aspirin (40 or 80 μg g^−1), or different doses of nstpbp5185 (B). After 5 min, FeCl3 injury was induced by a filter paper saturated with ferric chloride solution (10%). After removal of the paper, carotid blood flow (ml min^−1) was monitored continuously until thromboembolism formation or for 60 min. (C) Mice were orally administered with different doses of Aspirin and nstpbp5185 (D). Both drugs were suspended in 1% CMC. Blood flow monitoring were recorded used analyzed Labchart software (AD instruments). Data are presented as the mean±SEM (n≧3). **P<0.01 and ***P<0.001 as compared with the vehicle control (DMSO).
Mice were intravenously or orally administered with different doses of nstpbp5185.

Molecule: COc1cccc(Cn2c(-c3ccc(C)o3)nc3ccccc32)c1 [Example 6]
- % inhibition ADF [1]: 41.4 (n = 2) %
- % inhibition collagen [2]: 19.1%

Molecule: Cc1ccc(Cn2c(-c3ccc(C)o3)nc3ccccc32)cc1 [Example 9, 1-(p-Methylbenzyl)-2-(5-methyl-2-furyl)benzimidazole]
- IC50 [3]: 4.63 µM
- % inhibition ADF [1]: 17.4 (n = 3) %
- % inhibition collagen [2]: 1.1%

Molecule: Cc1ccc(-c2nc3cc(Cl)ccc3n2Cc2ccccc2C)o1 [Example 53a, 5-chloro-1-(2-methylbenzyl)-2-(5-methyl-2-furyl)benzimidazole]
- IC50 [3]: 6.01 µM

Molecule: Cc1ccc(-c2nc3cc(Cl)c(Cl)cc3[nH]2)o1 [Example 54, 5,6-dichloro-2-(5-methyl-2-furyl)benzimidazole]
- IC50 [3]: 5.13 µM

Molecule: Cc1ccc(-c2nc3cc(Cl)c(Cl)cc3n2Cc2ccccc2)o1 [Example 54a, 1-Benzyl-5,6-dichloro-2-(5-methyl-2-furyl)benzimidazole]
- IC50 [3]: 6.98 µM

Molecule: Cc1ccc(-c2nc3cc(Cl)c(Cl)cc3n2Cc2ccc([N+](=O)[O-])cc2)o1 [Example 55, 5,6-dichloro-1-(4-nitrobenzyl)-2-(5-methyl-2-furyl)benzimidazole]
- IC50 [3]: > 50 µM

Molecule: Cc1ccc(-c2nc3cc(Cl)c(Cl)cc3n2Cc2cccc([N+](=O)[O-])c2)o1 [Example 56, 5,6-dichloro-1-(3-nitrobenzyl)-2-(5-methyl-2-furyl)benzimidazole]
- IC50 [3]: 27 µM

Molecule: Cc1ccc(-c2nc3cc(Cl)c(Cl)cc3n2Cc2ccccc2[N+](=O)[O-])o1 [Example 57, 5,6-dichloro-1-(2-nitrobenzyl)-2-(5-methyl-2-furyl)benzimidazole]
- IC50 [3]: > 50 µM

Molecule: Cc1ccc(-c2nc3cc(Cl)c(Cl)cc3n2Cc2ccc(Cl)cc2)o1 [Example 58, 5,6-Dichloro-1-(4-chlorobenzyl)-2-(5-methyl-2-furyl)benzimidazole]
- IC50 [3]: 9.56 µM

Molecule: Cc1ccc(-c2nc3cc(Cl)c(Cl)cc3n2Cc2cccc(Cl)c2)o1 [Example 59, 5,6-dichloro-1-(3-chlorobenzyl)-2-(5-methyl-2-furyl)benzimidazole]
- IC50 [3]: 3.74 µM

Molecule: Cc1ccc(-c2nc3cc(Cl)c(Cl)cc3n2Cc2ccccc2Cl)o1 [Example 60, 5,6-dichloro-1-(2-chlorobenzyl)-2-(5-methyl-2-furyl)benzimidazole]
- IC50 [3]: 42.9 µM

Molecule: Cc1ccc(-c2nc3cc(Cl)c(Cl)cc3n2Cc2ccc(F)cc2)o1 [Example 63, 5,6-dichloro-1-(4-fluorobenzyl)-2-(5-methyl-2-furyl)benzimidazole]
- IC50 [3]: 2.68 µM

Molecule: Cc1cccc(Cn2c(-c3ccc(C)o3)nc3cc(Cl)c(Cl)cc32)c1 [Example 67, 5,6-dichloro-1-(3-methylbenzyl)-2-(5-methyl-2-furyl)benzimidazole]
- IC50 [3]: 6.52 µM

Molecule: Cc1ccc(-c2nc3ccc(C(=O)c4ccccc4)cc3n2Cc2ccc(Cl)cc2)o1 [Example 73, 6-Benzoyl-1-(4-chlorobenzyl)-2-(5-methyl-2-furyl)benzimidazole]
- IC50 [3]: > 50 µM

Molecule: COc1cccc(Cn2c(-c3ccc(C)o3)nc3ccc(C(=O)c4ccccc4)cc32)c1 [Example 77, 6-benzoyl-1-(3-methoxybenzyl)-2-(5-methyl-2-furyl)benzimidazole]
- IC50 [3]: > 50 µM

Molecule: COc1ccc2c(c1)c(CC(=O)O)c(C)n2C(=O)c1ccc(Cl)cc1 [indomethacin, reference compound]
- effect on U46619-induced platelet aggregation ([3]; U46619 1 μM, indomethacin concentration not given): without effects

Molecule: heparin
- time to FeCl3-induced occlusion (mice carotid artery; heparin 10 U kg^−1 or aspirin 40 μg g^−1 i.v.): about 10 min
- FeCl3-induced thrombus formation (mice carotid artery; heparin 100 U kg^−1 or aspirin 80 μg g^−1 i.v.): blocked

Other lines, results leading:

- IC50 [3]: 3.2 µM
Molecule: Cc1ccc(-c2nc3ccc(Cl)cc3n2Cc2ccccc2C)o1 [Example 53b, 6-chloro-1-(2-methylbenzyl)-2-(5-methyl-2-furyl)benzimidazole]

- IC50 [3]: 26.9 µM
Molecule: COc1ccc(Cn2c(-c3ccc(C)o3)nc3cc(Cl)c(Cl)cc32)cc1 [Example 61, 5,6-dichloro-1-(4-methoxybenzyl)-2-(5-methyl-2-furyl)benzimidazole]

- IC50 [3]: 8.88 µM
Molecule: COc1cccc(Cn2c(-c3ccc(C)o3)nc3cc(Cl)c(Cl)cc32)c1 [Example 62, 5,6-Dichloro-1-(3-methoxybenzyl)-2-(5-methyl-2-furyl)benzimidazole]

- IC50 [3]: 1.74 µM
Molecule: Cc1ccc(-c2nc3cc(Cl)c(Cl)cc3n2Cc2cccc(F)c2)o1 [Example 64, 5,6-dichloro-1-(3-fluorobenzyl)-2-(5-methyl-2-furyl)benzimidazole]

- IC50 [3]: 8.32 µM
Molecule: Cc1ccc(-c2nc3cc(Cl)c(Cl)cc3n2Cc2ccccc2F)o1 [Example 65, 5,6-dichloro-1-(2-fluorobenzyl)-2-(5-methyl-2-furyl) benzimidazole]

- IC50 [3]: 40.3 µM
Molecule: Cc1ccc(Cn2c(-c3ccc(C)o3)nc3cc(Cl)c(Cl)cc32)cc1 [Example 66, 5,6-dichloro-1-(4-methylbenzyl)-2-(5-methyl-2-furyl)benzimidazole]

- IC50 [3]: 5.69 µM
Molecule: Cc1ccc(-c2nc3cc(Cl)c(Cl)cc3n2Cc2ccccc2C)o1 [Example 68, 5,6-dichloro-1-(2-methylbenzyl)-2-(5-methyl-2-furyl)benzimidazole]

- IC50 [3]: > 50 µM
Molecule: Cc1ccc(-c2nc3ccc(C(=O)c4ccccc4)cc3[nH]2)o1 [Example 69, 6-benzoyl-2-(5-methyl-2-furyl)benzimidazole]

- IC50 [3]: 17.2 µM
Molecule: Cc1ccc(-c2nc3ccc(C(=O)c4ccccc4)cc3n2Cc2ccccc2)o1 [Example 69a, 1-Benzyl-6-benzoyl-2-(5-methyl-2-furyl)benzimidazole]

- IC50 [3]: 19.2 µM
Molecule: Cc1ccc(-c2nc3ccc(C(=O)c4ccccc4)cc3n2Cc2cccc(Cl)c2)o1 [Example 74, 6-benzoyl-1-(3-chlorobenzyl)-2-(5-methyl-2-furyl)benzimidazole]

- IC50 [3]: > 50 µM
Molecule: COc1ccc(Cn2c(-c3ccc(C)o3)nc3ccc(C(=O)c4ccccc4)cc32)cc1 [Example 76, 6-benzoyl-1-(4-methoxybenzyl)-2-(5-methyl-2-furyl)benzimidazole]

- IC50 [3]: 25.8 µM
Molecule: Cc1ccc(-c2nc3ccc(C(=O)c4ccccc4)cc3n2Cc2ccc(F)cc2)o1 [Example 78, 6-benzoyl-1-(4-fluorobenzyl)-2-(5-methyl-2-furyl)benzimidazole]

- IC50 [3]: > 50 µM
Molecule: Cc1ccc(-c2nc3ccc(C(=O)c4ccccc4)cc3n2Cc2cccc(F)c2)o1 [Example 79, 6-Benzoyl-1-(3-fluorobenzyl)-2-(5-methyl-2-furyl)benzimidazole]

- IC50 [3]: > 50 µM
Molecule: Cc1ccc(-c2nc3ccc(C(=O)c4ccccc4)cc3n2Cc2ccccc2F)o1 [Example 80, 6-benzoyl-1-(2-fluorobenzyl)-2-(5-methyl-2-furyl)benzimidazole]

- IC50 [3]: > 50 µM
Molecule: Cc1ccc(Cn2c(-c3ccc(C)o3)nc3ccc(C(=O)c4ccccc4)cc32)cc1 [Example 81, 6-benzoyl-1-(4-methylbenzyl)-2-(5-methyl-2-furyl)benzimidazole]

- IC50 [3]: > 50 µM
Molecule: Cc1ccc(-c2nc3ccc(C(=O)c4ccccc4)cc3n2Cc2ccccc2C)o1 [Example 83, 6-benzoyl-1-(2-methylbenzyl)-2-(5-methyl-2-furyl)benzimidazole]
